PMC7796460, “Relation of Metal-Binding Property and Selective Toxicity of 8-Hydroxyquinoline Derived Mannich Bases Targeting Multidrug Resistant Cancer Cells” (Cancers, 2021)
Where two headings read alike, the source gives them in different places.

Experiments:
MES-SA/Dx5 cells [1] = assay: ROS determination with DCFDA, MES-SA/Dx5; type: cell-based, human; settings: 2 h
Experimental: (§1) Measurements were performed as described earlier. Briefly, cells were harvested, washed with PBS, and incubated with 10 µM DCFDA in a water bath shaker at 37 °C for 30 min in a density of 3 × 10^6 cells/mL. After washing with PBS, cells were seeded to 96-well plates in PBS in a density of 2 × 10^4 cells/well. Following the measurement of the basal fluorescence, test compounds were added in different concentrations and the fluorescence of the samples was followed at time intervals of 10 min. DCFDA solution in buffer was used as a cell free control to test for interaction of the test compounds with DCFDA. Data were analyzed as fold change of fluorescence compared to basal levels and untreated cells. Significance was calculated using unpaired t-tests; results are given as *: p ≤ 0.05, **: p ≤ 0.01, ***: p ≤ 0.001, ****: p ≤ 0.0001.
(§2) Table S3: Characterization of intracellular ROS production with the DCFDA assay for P -gp negative MES-SA and P-gp positive MES-SA/Dx5 cells. Fold changes in fluorescence are shown after a 2 h with the investigated 8 -hydroxyquinoline ligands. Data S-refer to Figure 7 and allow […]
(§3) concentration range from 6.25µ M to 50µ M. Fold change of fluorescence obtained in the presence of 5 mM NAC is given in brackets.

[2] = pKa by UV-visible spectrophotometric titrations; type: physicochemical; settings: T = 25 °C, I = 0.2 M (KCl); for pKa: 0.2 M KCl (ionic strength)
MES-SA cells [3] = assay: MTT viability assay, MES-SA; type: cell-based, human; settings: Table 2, value outside brackets, read-out: MES-SA (toxicity, Table 2)
Description: (§4) MDCK II canine kidney cells, A431 epidermoid carcinoma cells, the human uterine sarcoma cell lines MES-SA and the doxorubicin selected MES-SA-Dx5 were obtained from ATCC (MDCK II: No. CRL-2936™, A431: No. CRL-1555™, MES-SA: No. CRL-1976™, MES-SA/Dx5: No. CRL-1977™). ABCB1 was expressed in A431 and MES-SA cells using lentiviral transduction. The human cervix carcinoma cell line KB-3-1 and the vinblastine selected KB-v1were kind gifts from Dr. Michael M. Gottesman, National Institutes of Health. The phenotype of the resistant cells was verified using cytotoxicity assays. MDCK-B1 and MDCK-MM were established by the Sleeping Beauty transposon-based gene delivery system. OVCAR-8 and NCI-ADRres cells (obtained from the Division of Cancer Treatment and Diagnosis (DCTD) Tumor Repository (National Cancer Institute, Frederick, MD, USA)) were cultivated in RPMI-1640 (Sigma Aldrich, Budapest, Hungary), and other cell lines were cultivated in Dulbecco’s Modified Eagle Medium (DMEM, Sigma Aldrich, Budapest, Hungary), supplemented with 10% fetal bovine serum, 5 mM glutamine, and 50 unit/mL penicillin and streptomycin (Life Technologies, Carlsbad, CA, USA). All cell lines were cultivated at 37 °C, 5% CO2.
(§5) MTT viability assays were performed as described earlier with minor modifications. Briefly, cells were seeded into 96-well tissue culture plates (Sarstedt, Newton, NC, USA/Orange, Braine-l’Alleud, Belgium) at a density of 5000 cells/well and allowed to attach overnight. Test compounds were added to achieve the required final concentration in a final volume of 100 µL per well. After an incubation period of 72 h, the supernatant was removed and fresh medium containing the MTT reagent (0.083 mg/mL) was added. Incubation with MTT at 37 °C was terminated after 1 h by removing the supernatant and lysing the cells with 100 µL DMSO per well. Viability of the cells was measured spectrophotometrically based on the absorbance values at 540 nm using either a Perkin Elmer Victor X3 or an EnSpire microplate reader. Data were background corrected by subtraction of the signal obtained from unstained cell lysates and normalized to untreated cells. Curves were fitted by Prism software (GraphPad Software Inc., San Diego, CA, USA) using the sigmoidal dose-response model (comparing variable and fixed slopes). […] Significance was calculated using unpaired t-tests; results are given as *: p ≤ 0.05, **: p ≤ 0.01, ***: p ≤ 0.001, ****: p ≤ 0.0001.

MES-SA cells [4] = assay: ROS determination with DCFDA, MES-SA; type: cell-based, human; settings: 2 h
Experimental: as §1, §2, §3

MES-SA/Dx5 cells [5] = assay: MTT viability assay, MES-SA/Dx5; type: cell-based, human; settings: for IC50: read-out: MES-SA/Dx5 (toxicity, Table 2)
Description: as §4, §5

[6] = MES-SA/Dx5, 6.25 µM, presence of 5 mM NAC (brackets)
[7] = MES-SA/Dx5, 12.5 µM, presence of 5 mM NAC (brackets)
[8] = MES-SA/Dx5, 25 µM, presence of 5 mM NAC (brackets)
[9] = MES-SA/Dx5, 50 µM, presence of 5 mM NAC (brackets)
[10] = 6.25 µM, presence of 5 mM NAC (brackets)
[11] = 12.5 µM, presence of 5 mM NAC (brackets)
[12] = 25 µM, presence of 5 mM NAC (brackets)
[13] = 50 µM, presence of 5 mM NAC (brackets)
[14] = Table 2, value in brackets (Tariquidar as in Table 1)
[15] = Table 2, value outside brackets

| Compound | Fold change in fluorescence (DCFDA) (MES-SA/Dx5 cells [1]; MES-SA/Dx5, 6.25 µM) | Fold change in fluorescence (DCFDA) (MES-SA/Dx5 cells [1]; [6]) | Fold change in fluorescence (DCFDA) (MES-SA/Dx5 cells [1]; MES-SA/Dx5, 12.5 µM) | Fold change in fluorescence (DCFDA) (MES-SA/Dx5 cells [1]; [7]) | Fold change in fluorescence (DCFDA) (MES-SA/Dx5 cells [1]; MES-SA/Dx5, 25 µM) | Fold change in fluorescence (DCFDA) (MES-SA/Dx5 cells [1]; [8]) | Fold change in fluorescence (DCFDA) (MES-SA/Dx5 cells [1]; MES-SA/Dx5, 50 µM) | Fold change in fluorescence (DCFDA) (MES-SA/Dx5 cells [1]; [9]) | Fold change in fluorescence (DCFDA) (MES-SA cells [4]; 6.25 µM) | Fold change in fluorescence (DCFDA) (MES-SA cells [4]; [10]) | Fold change in fluorescence (DCFDA) (MES-SA cells [4]; 12.5 µM) | Fold change in fluorescence (DCFDA) (MES-SA cells [4]; [11]) | Fold change in fluorescence (DCFDA) (MES-SA cells [4]; 25 µM) | Fold change in fluorescence (DCFDA) (MES-SA cells [4]; [12]) | Fold change in fluorescence (DCFDA) (MES-SA cells [4]; 50 µM) | Fold change in fluorescence (DCFDA) (MES-SA cells [4]; [13]) | SR MES-SA/Dx5 (Table 2) (MES-SA/Dx5 cells [5]; [14]) | SR MES-SA/Dx5 (Table 2) (MES-SA/Dx5 cells [5]; [15]) | also measured |
| --- | --- | --- | --- | --- | --- | --- | --- | --- | --- | --- | --- | --- | --- | --- | --- | --- | --- | --- | --- |
| Oc1c(CN2CCCCC2)cc(Cl)c2cccnc12 [Compound 5-Cl-Q-3] | 1.975± 0.50 | 1.024± 0.19 | 1.954± 0.42 | 0.954± 0.14 | 2.714± 0.84 | 1.005± 0.21 | 3.077± 1.29 | 1.086± 0.14 | 1.672± 0.27 | 1.307± 0.51 | 1.861± 0.40 | 1.542± 0.35 | 1.812± 0.27 | 1.382± 0.67 | 2.075± 0.68 | 1.155± 0.25 | 1.61 | 8.40 | pKa ([2]; group named in the cell (NmorpholiniumH+, NpiperidiniumH+, NbenzylamineH2+), read-out: pKa (additional)): 7.16 ± 0.03; pKa ([2]; read-out: pKa (NquinoliniumH+)): 1.61 ± 0.04; pKa ([2]; read-out: pKa (OH)): 4.85 ± 0.02; IC50 (MES-SA cells [3]; Homo sapiens, MES-SA): 1300 ± 210 nM; IC50 (MES-SA/Dx5 cells [5]; Homo sapiens, MES-SA/Dx5, Table 2, value outside brackets): 150 ± 10 nM |
| 7-(2-fluorobenzyl-aminomethyl)-8-hydroxyquinoline hydrochloride [De-Cl-Q-4] | 1.282± 0.35 | 1.137± 0.30 | 1.177± 0.22 | 1.088± 0.23 | 1.344± 0.27 | 1.282± 0.28 | 1.373± 0.35 | 1.265± 0.27 | 1.431± 0.39 | 1.364± 0.44 | 1.118± 0.14 | 1.345± 0.27 | 1.260± 0.20 | 1.111± 0.22 | 1.328± 0.29 | 1.259± 0.29 | 1.72 | 5.22 | pKa (NquinoliniumH+) [2]: 3.21 ± 0.04; pKa (OH) [2]: 6.42 ± 0.04; pKa (additional) ([2]; group named in the cell (NmorpholiniumH+, NpiperidiniumH+, NbenzylamineH2+)): 10.69 ± 0.04 (NbenzylamineH2^+); IC50 (MES-SA cells [3]): 1780 ± 80 nM; IC50 (MES-SA/Dx5 cells [5]; [15]): 340 ± 10 nM |
